TGI data for 23 molecules are collected here from PubChem BioAssay (NCI).

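Step 1: Grow cells in 96-well plates. Step 2: Expose to compound for 48 hours at 5 concentrations. Step 3: Interpolate endpoints linearly; if unreached, use highest concentration. TGI is the concentration that stops growth completely.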

In one assay the test system is OVCAR-5 ovarian. The assay is described as follows: NCI-60 cell line screen, 48 h.
For the molecule `O=C(Nn1c(-c2ccccc2)nc2ccccc2c1=O)c1ccc(Cl)cc1`, the TGI was above 100 µM.

For `CC(=O)c1ccc(N=NN2CCCC2)cc1`, the TGI was above 100 µM.

Molecule `Cc1nc2sc3cccc(Cl)c3n2c(=O)c1N=Nc1ccc(Cl)cc1` registered a TGI above 100 µM.

`CSC(=O)/C=C1\SS/C(=C\C(=O)SC)S1` registered a TGI of 13.7 µM.

The molecule `Cn1c(CNc2ccc(-c3n[nH]c(=S)n3C)cc2)n[nH]c1=S` returned a TGI above 100 µM.

`NCCOc1cccc(C2(N3CCCCC3)CCCCC2)c1`: the TGI was above 100 µM.

As for `Cc1ccc(N=N/C(=N/NC(=O)c2ccccc2)c2ccc(N(CCC#N)CCC#N)cc2C)cc1`, the TGI was above 100 µM.

`CC(N)(CC(O)(C(F)(F)Cl)C(F)(F)Cl)C(=O)O` (centres undefined) gave a TGI above 10 µM.

As for `CCCCCCCCCCCCCCCCCCNc1ccn(C2OC(COP(=O)(O)OCC3OC(n4ccc(N)nc4=O)C(O)C3O)C(O)C2O)c(=O)n1` (centres undefined), the TGI was above 100 µM.

For `COc1ccc(CCCCNCc2cccc(CNCCCCc3ccc(OC)cc3)c2)cc1`, the TGI stood at 4.33 µM.

As for `CC(SC(=S)N1CCOCC1)C(=O)Nc1nnc(-c2ccc(Cl)cc2)o1` (centres undefined), the TGI is above 100 µM.

Molecule `CC(=O)c1ccc(Nc2c3c(nc4ccccc24)CCCC3)cc1` yielded a TGI of 97.9 µM.

In turn, `CCN1CCC(O)(c2ccc([N+](=O)[O-])cc2)C(C(=O)c2ccc([N+](=O)[O-])cc2)C1` (centres undefined) registered a TGI above 100 µM.

On to `S=C1Cc2c(-c3ccccc3)cc(-c3cccc(Cl)c3)nc2-c2ccccc2N1`, for which the TGI is above 72.7 µM.

Turning to `N#Cc1sc2nc3ccccc3n2c1N`, the TGI is above 100 µM.

Consider `N#Cc1c(NC(=O)C(F)(F)F)sc2c3c(=O)c4ccccc4c(=O)c=3oc3ccccc3c12`, for which the TGI came out at 63.3 µM.

In the case of `Cc1c(C)c2c(c(N)c1C#N)C(=O)N(Cc1ccc(S(N)(=O)=O)cc1)C2=O`, the TGI was above 87.9 µM.

Take `CN(NC1=NCCO1)c1ccc2ccccc2c1`: the TGI is above 100 µM.

In turn, `O=C1CC(O)c2cscc21` (centres undefined) returned a TGI above 100 µM.

The molecule `COC(=O)/C=C/c1ccc(OP(=O)(O)O)c(OC)c1` displayed a TGI above 100 µM.

`COc1ccc(OC)c2sc(N3C(=O)/C(=C/c4cccc(Oc5ccccc5)c4)N=C3c3ccccc3)nc12`: the TGI is above 100 µM.

As to `Cc1cc(O)c(/C=N/C(N)=S)c(=O)o1`, the TGI was above 100 µM.

For the molecule `Cc1[nH]n(-c2nc3c(c(=O)[nH]2)CCCC3)c(=O)c1CCO`, the TGI is above 100 µM.

A further assay concerns MCF7 breast. The assay is described as follows: NCI-60 cell line screen, 48 h.
The molecule `O=C(Nn1c(-c2ccccc2)nc2ccccc2c1=O)c1ccc(Cl)cc1` came in with a TGI above 100 µM.

As for `CC(=O)c1ccc(N=NN2CCCC2)cc1`, the TGI is above 100 µM.

`Cc1nc2sc3cccc(Cl)c3n2c(=O)c1N=Nc1ccc(Cl)cc1`: the TGI is above 100 µM.

Turning to `CSC(=O)/C=C1\SS/C(=C\C(=O)SC)S1`, the TGI was 9.19 µM.

Molecule `Cn1c(CNc2ccc(-c3n[nH]c(=S)n3C)cc2)n[nH]c1=S` showed a TGI above 100 µM.

For `NCCOc1cccc(C2(N3CCCCC3)CCCCC2)c1`, the TGI is above 100 µM.

Molecule `Cc1ccc(N=N/C(=N/NC(=O)c2ccccc2)c2ccc(N(CCC#N)CCC#N)cc2C)cc1` gave a TGI above 100 µM.

For `CC(N)(CC(O)(C(F)(F)Cl)C(F)(F)Cl)C(=O)O` (centres undefined), the TGI was above 10 µM.

As for `CCCCCCCCCCCCCCCCCCNc1ccn(C2OC(COP(=O)(O)OCC3OC(n4ccc(N)nc4=O)C(O)C3O)C(O)C2O)c(=O)n1` (centres undefined), the TGI was above 100 µM.

In turn, `COc1ccc(CCCCNCc2cccc(CNCCCCc3ccc(OC)cc3)c2)cc1` gave a TGI of 3.06 µM.

Turning to `CC(SC(=S)N1CCOCC1)C(=O)Nc1nnc(-c2ccc(Cl)cc2)o1` (centres undefined), the TGI was above 100 µM.

`CC(=O)c1ccc(Nc2c3c(nc4ccccc24)CCCC3)cc1` yielded a TGI above 100 µM.

`CCN1CCC(O)(c2ccc([N+](=O)[O-])cc2)C(C(=O)c2ccc([N+](=O)[O-])cc2)C1` (centres undefined) showed a TGI of 31.4 µM.

Regarding `S=C1Cc2c(-c3ccccc3)cc(-c3cccc(Cl)c3)nc2-c2ccccc2N1`, the TGI was above 58.1 µM.

In the case of `N#Cc1sc2nc3ccccc3n2c1N`, the TGI is above 100 µM.

`N#Cc1c(NC(=O)C(F)(F)F)sc2c3c(=O)c4ccccc4c(=O)c=3oc3ccccc3c12`: the TGI is above 89.9 µM.

As to `Cc1c(C)c2c(c(N)c1C#N)C(=O)N(Cc1ccc(S(N)(=O)=O)cc1)C2=O`, the TGI was above 100 µM.

`CN(NC1=NCCO1)c1ccc2ccccc2c1` showed a TGI above 100 µM.

`O=C1CC(O)c2cscc21` (centres undefined) gave a TGI above 100 µM.

`COC(=O)/C=C/c1ccc(OP(=O)(O)O)c(OC)c1` gave a TGI above 100 µM.

`COc1ccc(OC)c2sc(N3C(=O)/C(=C/c4cccc(Oc5ccccc5)c4)N=C3c3ccccc3)nc12` showed a TGI above 100 µM.

As to `Cc1cc(O)c(/C=N/C(N)=S)c(=O)o1`, the TGI is above 100 µM.

On to `Cc1[nH]n(-c2nc3c(c(=O)[nH]2)CCCC3)c(=O)c1CCO`, for which the TGI is above 100 µM.

For the next assay, the system named is MDA-MB-435. Kind of assay: NCI-60 cell line screen, 48 h.
On to `O=C(Nn1c(-c2ccccc2)nc2ccccc2c1=O)c1ccc(Cl)cc1`, for which the TGI is above 100 µM.

`CC(=O)c1ccc(N=NN2CCCC2)cc1` gave a TGI above 100 µM.

In turn, `Cc1nc2sc3cccc(Cl)c3n2c(=O)c1N=Nc1ccc(Cl)cc1` gave a TGI above 100 µM.

`CSC(=O)/C=C1\SS/C(=C\C(=O)SC)S1` yielded a TGI of 7.08 µM.

Regarding `Cn1c(CNc2ccc(-c3n[nH]c(=S)n3C)cc2)n[nH]c1=S`, the TGI is above 100 µM.

For `NCCOc1cccc(C2(N3CCCCC3)CCCCC2)c1`, the TGI was 33.6 µM.

Molecule `Cc1ccc(N=N/C(=N/NC(=O)c2ccccc2)c2ccc(N(CCC#N)CCC#N)cc2C)cc1` yielded a TGI above 100 µM.

`CC(N)(CC(O)(C(F)(F)Cl)C(F)(F)Cl)C(=O)O` (centres undefined) returned a TGI above 10 µM.

In turn, `CCCCCCCCCCCCCCCCCCNc1ccn(C2OC(COP(=O)(O)OCC3OC(n4ccc(N)nc4=O)C(O)C3O)C(O)C2O)c(=O)n1` (centres undefined) gave a TGI above 100 µM.

For `COc1ccc(CCCCNCc2cccc(CNCCCCc3ccc(OC)cc3)c2)cc1`, the TGI was 3.63 µM.

Consider `CC(SC(=S)N1CCOCC1)C(=O)Nc1nnc(-c2ccc(Cl)cc2)o1` (centres undefined), for which the TGI was above 100 µM.

`CC(=O)c1ccc(Nc2c3c(nc4ccccc24)CCCC3)cc1` showed a TGI of 13.8 µM.

In the case of `CCN1CCC(O)(c2ccc([N+](=O)[O-])cc2)C(C(=O)c2ccc([N+](=O)[O-])cc2)C1` (centres undefined), the TGI came out at 43.5 µM.

With `S=C1Cc2c(-c3ccccc3)cc(-c3cccc(Cl)c3)nc2-c2ccccc2N1`, the TGI was above 60.9 µM.

As for `N#Cc1sc2nc3ccccc3n2c1N`, the TGI was above 100 µM.

As to `N#Cc1c(NC(=O)C(F)(F)F)sc2c3c(=O)c4ccccc4c(=O)c=3oc3ccccc3c12`, the TGI came out at 41.4 µM.

As to `Cc1c(C)c2c(c(N)c1C#N)C(=O)N(Cc1ccc(S(N)(=O)=O)cc1)C2=O`, the TGI is above 100 µM.

On to `CN(NC1=NCCO1)c1ccc2ccccc2c1`, for which the TGI is above 100 µM.

In turn, `O=C1CC(O)c2cscc21` (centres undefined) came in with a TGI above 100 µM.

`COC(=O)/C=C/c1ccc(OP(=O)(O)O)c(OC)c1` came in with a TGI above 100 µM.

Molecule `COc1ccc(OC)c2sc(N3C(=O)/C(=C/c4cccc(Oc5ccccc5)c4)N=C3c3ccccc3)nc12` had a TGI above 100 µM.

`Cc1cc(O)c(/C=N/C(N)=S)c(=O)o1` showed a TGI above 100 µM.

In turn, `Cc1[nH]n(-c2nc3c(c(=O)[nH]2)CCCC3)c(=O)c1CCO` registered a TGI above 100 µM.
